ChEMBL document CHEMBL1153593, “Recent developments in the design and synthesis of hybrid molecules based on aminoquinoline ring and their antiplasmodial evaluation” (Eur J Med Chem, 2009)

Tests used:
[1] = Inhibition of Plasmodium falciparum falcipain-2
Plasmodium berghei [2] = assay: Gametocytocidal activity as infected mosquitoes against Plasmodium berghei at 10 uM/kg; assay type: functional
Plasmodium berghei [3] = assay: Gametocytocidal activity as oocysts per mosquito against Plasmodium berghei; assay type: functional
[4] = Stability assessed as hydrolysis to metabolite in presence of 80% human plasma; assay type: ADME, cell-free
Plasmodium falciparum [5] = assay: Antimalarial activity against chloroquine-resistant Plasmodium falciparum K1; assay type: functional, organism-based
Plasmodium falciparum [6] = assay: microbe, parasite or virus in culture; settings: D10
Description: Antimalarial activity against chloroquine-sensitive Plasmodium falciparum D10

Plasmodium falciparum [7] = assay: Antimalarial activity against chloroquine-resistant Plasmodium falciparum W2; assay type: functional, organism-based

IC50 [1] | SMILES | IC50 (Plasmodium falciparum [5]) | IC50 (Plasmodium falciparum [6]) | IC50 (Plasmodium falciparum [7]) | other results
0.72 µM | O=C(NCCNc1ccnc2cc(Cl)ccc12)N/N=C/c1ccc(O)c(CN2CCCC2)c1O |  |  |  | 
3.16 µM | O=C(NCCNc1ccnc2cc(Cl)ccc12)N/N=C/c1ccc(O)c(CN2CCN(c3ccnc4cc(Cl)ccc34)CC2)c1O |  |  |  | 
> 20 µM | NC(=O)N/N=C/c1ccc(O)c(CN2CCN(c3ccnc4cc(Cl)ccc34)CC2)c1O |  |  |  | 
2.25 µM | NC(=S)N/N=C/c1ccc(O)c(CN2CCN(c3ccnc4cc(Cl)ccc34)CC2)c1O |  |  |  | 
2.6 µM | CCN(CC)Cc1c(O)ccc(/C=N/NC(=O)NCCNc2ccnc3cc(Cl)ccc23)c1O |  |  |  | 
 | COc1cc(NC(C)CCCN2C(=O)CNC23CCCCC3)c2ncccc2c1 (centres undefined) |  |  |  | Activity (Plasmodium berghei [2]): 25%; Activity (Plasmodium berghei [3]): 7.4; Stability [4]: Stable
> 20 µM | CN1CCN(Cc2c(O)ccc(/C=N/NC(=O)NCCNc3ccnc4cc(Cl)ccc34)c2O)CC1 |  |  |  | 
> 20 µM | O=C(NCCNc1ccnc2cc(Cl)ccc12)N/N=C/c1ccc(O)c(CN2CCOCC2)c1O |  |  |  | 
 | COc1cc(NC(C)CCCN2C(=O)CNC2(C)C)c2ncccc2c1 (centres undefined) |  |  |  | Activity (Plasmodium berghei [2]): 21%; Activity (Plasmodium berghei [3]): 6.1
0.63 µM | O=C(NCCNc1ccnc2cc(Cl)ccc12)N/N=C/c1ccc(O)c(CN2CCCCC2)c1O |  |  |  | 
 | CC(C)(C)C(=O)CN(CCCNc1ccnc2cc(Cl)ccc12)C(=O)c1cnccn1 | 2290 nM | 1380 nM | 1650 nM | 
 | CC(C)(C)NC(=O)C1(C)CCC(=O)N1CCCCCCNc1ccnc2cc(Cl)ccc12 (centres undefined) |  |  | 180 nM | 
 | CC(C)(C)C(=O)CN(CCNc1ccnc2cc(Cl)ccc12)C(=O)c1cnccn1 | 1130 nM | 712 nM | 1190 nM | 
 | O=C(CN(CCCNc1ccnc2cc(Cl)ccc12)C(=O)c1ccc(O)cc1O)C1CCCCC1 | 3830 nM | 1670 nM | 5940 nM | 
 | O=C(CN(CCNc1ccnc2cc(Cl)ccc12)C(=O)c1cnccn1)C1CCCCC1 | 1350 nM | 793 nM | > 10000 nM | 
 | O=C(CN(CCCNc1ccnc2cc(Cl)ccc12)C(=O)c1cnccn1)C1CCCCC1 | 521 nM | 242 nM | 877 nM | 
 | O=C(CN(CCCNc1ccnc2cc(Cl)ccc12)C(=O)c1ccncc1)C1CCCCC1 | 73 nM | 237 nM | 1570 nM | 
 | COc1cc(NC(C)CCCN2C(=O)[C@@H](C(C)C)NC23CCCCCC3)c2ncccc2c1 (some centres undefined) |  |  |  | Activity (Plasmodium berghei [2]): 65%; Activity (Plasmodium berghei [3]): 17.7
 | CC(C)(C)C(=O)CN(CCNc1ccnc2cc(Cl)ccc12)C(=O)c1ccncc1 | 1100 nM | 1060 nM | 991 nM | 
 | COc1cc(NC(C)CCCN2C(=O)[C@@H](Cc3ccccc3)NC23CCCC3)c2ncccc2c1 (some centres undefined) |  |  |  | Activity (Plasmodium berghei [2]): 65%; Activity (Plasmodium berghei [3]): 51.6
 | CC(C)(C)C(=O)CN(CCNc1ccnc2cc(Cl)ccc12)C(=O)c1ccc(O)cc1O | 5790 nM | 5660 nM | 4140 nM | 
 | O=C(CN(CCNc1ccnc2cc(Cl)ccc12)C(=O)c1ccncc1)C1CCCCC1 | 531 nM | 540 nM | 619 nM | 
 | CC(C)(C)C(=O)CN(CCCNc1ccnc2cc(Cl)ccc12)C(=O)c1ccncc1 | 18200 nM | > 20000 nM | 3810 nM | 
 | COc1cc(NC(C)CCCN2C(=O)[C@@H](C)NC23CCCCC3)c2ncccc2c1 (some centres undefined) |  |  |  | Activity (Plasmodium berghei [2]): 20%; Activity (Plasmodium berghei [3]): 0.8
 | COc1cc(NC(C)CCCN2C(=O)[C@@H](C(C)C)NC23CCCC3)c2ncccc2c1 (some centres undefined) |  |  |  | Activity (Plasmodium berghei [2]): 35%; Activity (Plasmodium berghei [3]): 4.2
 | NC(=S)N/N=C1/C(=O)N(CCNc2ccnc3cc(Cl)ccc23)c2ccc(Cl)cc21 | 54 nM | 95 nM |  | 

SMILES | IC50 [1] | IC50 (Plasmodium falciparum [5]) | IC50 (Plasmodium falciparum [6]) | IC50 (Plasmodium falciparum [7]) | other results
NC(=S)N/N=C1/C(=O)N(CCNc2ccnc3cc(Cl)ccc23)c2ccccc21 | 14.7 µM | 710 nM | 320 nM | 240 nM | 
CC1(C(=O)NC2CCCCC2)CCCC(=O)N1CCCCCCNc1ccnc2cc(Cl)ccc12 (centres undefined) | 17.6 µM |  |  | 96 nM | 
Cc1ccc2c(c1)/C(=N\NC(N)=S)C(=O)N2CCNc1ccnc2cc(Cl)ccc12 | 11.6 µM | 100 nM | 79 nM | 51 nM | 
